Measurements from patent US20260098008A1, “COVALENT, CHEMOGENETIC ACTIVATORS FOR K2P POTASSIUM CHANNELS AND USES THEREOF” (THE REGENTS OF THE UNIVERSITY OF CALIFORNIA, priority 2022, published 2026).
Where a chain is given by its changes, count along the chain named.

Assays:
K2P4.1 (TRAAK)^CG* = test: TEVC in Xenopus oocytes; assay type: cell-based; conditions: 20 μM
Excerpt: (§1) Mouse K2P2.1 (TREK-1) (Genbank accession number: NP_034737.2), mouse K2P10.1 (TREK-2) (NM_001316665.1), mouse K2P4.1 (TRAAK) (NM_008431.3), human K2P4.1 (TRAAK) (NM_033310.2) and mouse K2P18.1(TRESK) (NM_207261.3) were used for this study. Point mutations were introduced by site-directed mutagenesis using custom primers and confirmed by sequencing before use. For studies using Xenopus oocytes, K2P channels were subcloned into a previously reported pGEMHE/pMO vector (46). For expression in HEK293 cells, mouse K2P2.1 (TREK-1) and mutants were expressed from a previously described pIRES2-EGFP vector in HEK293 cells (46,47). K2P2.1 (TREK-1) tandems were constructed by connecting the open reading frames for the individual subunits with a linker encoding the […] (SEQ ID NO: 19) sequence. Tandems used for HEK293 cells included an N-terminal HA tag ([…] (SEQ ID NO: 20)) on the first subunit.
(§2) Xenopus laevis oocytes were harvested according to UCSF IACUC Protocol AN129690 and digested using collagenase (Worthington Biochemical Corporation, #LS004183, 0.8-1.0 mg/mL) in Ca^21-free ND96 (96 mM NaCl, 2 mM KCl, 3.8 mM MgCl2, 5 mM HEPES pH 7.4) immediately post-harvest, as previously reported (31,33). Oocytes were maintained at 18° C. in ND96 (96 mM NaCl, 2 mM KCl, 1.8 mM CaCl2, 2 mM MgCl2, 5 mM HEPES pH 7.4) supplemented with antibiotics (100 units mL^−1 penicillin, 100 μg mL^−1 streptomycin, 50 μg mL^−1 gentimycin) and used for experiments within one week of harvest.
(§3) Defolliculated stage V-VI oocytes were microinjected with 0.5-36 ng mRNA and currents were recorded within 16-48 h hours of injection.
(§4) For recordings, oocytes were impaled with borosilicate recording microelectrodes (0.4-2.0 MΩ resistance) backfilled with 3 M KCl and were subjected to constant perfusion of ND96 at a rate of 3 ml min^−1. Recording solutions containing K2P activators were prepared immediately prior to use from DMSO stocks (20-100 mM), with final DMSO concentrations of 0.1%. Currents were evoked from a −80 mV holding potential followed by a 300 ms ramp from −150 mV to +50 mV. Data were recorded using a GeneClamp 500B amplifier (MDS Analytical Technologies) controlled by pCLAMP8 software (Molecular Devices), and digitized at 1 kHz using Digidata 1332 Å digitizer (MDS Analytical Technologies). For each recording, control solution (ND96) was perfused over a single oocyte until current was stable before switching to solutions containing the test compounds at various concentrations. Representative traces and dose response plots were generated in GraphPad Prism 9.

[1] = target: T1, TREK-1^CG* (K2P2.1 (TREK-1) S131C) (Mus musculus, UniProt P97438, S146C); test: TEVC in Xenopus oocytes; assay type: cell-based; conditions: for Reversibility of activation on washout: 20 μM, Xenopus oocytes
T1 construct: expressed in transfected cells; host or cells: Xenopus laevis oocytes injected with mRNA
T1 sequence (P97438 1-411 isoform P97438-2 S131C): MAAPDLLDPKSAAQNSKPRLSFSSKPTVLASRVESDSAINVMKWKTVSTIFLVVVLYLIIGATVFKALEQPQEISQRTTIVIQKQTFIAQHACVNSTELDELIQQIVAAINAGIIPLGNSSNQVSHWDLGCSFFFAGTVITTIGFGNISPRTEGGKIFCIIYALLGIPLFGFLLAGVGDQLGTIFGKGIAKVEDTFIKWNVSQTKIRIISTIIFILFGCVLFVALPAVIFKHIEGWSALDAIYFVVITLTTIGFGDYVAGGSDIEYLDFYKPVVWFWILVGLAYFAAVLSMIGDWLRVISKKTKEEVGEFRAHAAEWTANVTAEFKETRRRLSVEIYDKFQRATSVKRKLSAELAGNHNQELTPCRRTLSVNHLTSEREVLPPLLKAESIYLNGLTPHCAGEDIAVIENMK
Excerpt: as §1, §2, §3, §4

Q258K K2P4.1 (TRAAK)^CG* = target: T2, Q258K K2P4.1 (TRAAK)^CG* (Homo sapiens, UniProt Q9NYG8, Q232K/S92C); test: TEVC in Xenopus oocytes; assay type: cell-based; conditions: 20 μM; after 2 min
T2 construct: expressed in transfected cells; host or cells: Xenopus laevis oocytes injected with mRNA
T2 sequence (Q9NYG8 1-393 S92C/Q232K): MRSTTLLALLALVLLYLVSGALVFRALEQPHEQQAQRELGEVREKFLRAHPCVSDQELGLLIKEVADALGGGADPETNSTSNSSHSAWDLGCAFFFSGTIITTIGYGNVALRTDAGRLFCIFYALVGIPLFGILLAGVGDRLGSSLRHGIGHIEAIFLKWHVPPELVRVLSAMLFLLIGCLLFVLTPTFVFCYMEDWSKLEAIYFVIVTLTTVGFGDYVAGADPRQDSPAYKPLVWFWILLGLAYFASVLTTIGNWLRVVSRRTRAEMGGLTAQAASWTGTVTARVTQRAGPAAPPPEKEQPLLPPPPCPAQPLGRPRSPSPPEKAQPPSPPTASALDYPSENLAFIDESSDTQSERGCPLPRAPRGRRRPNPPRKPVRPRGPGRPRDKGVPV
Excerpt: as §1, §2, §3, §4

K2P4.1 (TRAAK) = target: T3, K2P4.1 (TRAAK) (Homo sapiens, UniProt Q9NYG8); conditions: previous studies; cited from earlier work
T3 sequence (Q9NYG8 1-393): T2 sequence (Q9NYG8 1-393 S92C/Q232K) with C92S, K232Q

Row | Reversibility of activation on washout [1] | Fold-activation (I activator/I control) (Q258K K2P4.1 (TRAAK)^CG*) [fold] | Emax (IML335/Icontrol) ([1]; TEVC at 0 mV) [fold activation] | EC50 ([1]; TEVC at 0 mV, normalized to initial currents) [µM] | Compound | Reversibility of activation (K2P4.1 (TRAAK)^CG*; Xenopus oocytes) | Fold-activation (I activator/I control) (K2P4.1 (TRAAK)^CG*; after 2 min) [fold] | Fold-activation (I activator/I control) (K2P4.1 (TRAAK)^CG*; longer application (6 min) to approach maximal activation) [fold] | Sensitivity of channel to activator (K2P4.1 (TRAAK))
1 | irreversible | 7.4 ± 0.6 | – | – | O=C(NCc1ccc(Cl)cc1Cl)c1ccc(N2C(=O)C=CC2=O)cc1 [CAT335] | irreversibly activated | 4.2±0.6 | 11±1 | –
2 | immediate reversal | 3.7±0.3 | 9.6±0.8 | 18 ± 4 | CS(=O)(=O)Nc1ccc(C(=O)NCc2ccc(Cl)cc2Cl)cc1 [ML335, reference compound] | – | 1.9±0.1 | – | insensitive
